Experimental data taken from patent US9167822B2, “Antifungal compositions” (DSM IP ASSETS B.V., priority 2012, dated 2015).

Experiments:
Botrytis cinerea = test: In vitro antifungal activity, 96-well microtiter plates; format: cell-based; details: 25° C., day 3, 1.25 ppm natamycin, 6.25 ppm isopyrazam or both
Description: Subsequently, 100 μl of a Botrytis cinerea suspension prepared in PCB medium was used to inoculated each well with 2.5×10^3 spores/ml. […] After incubation of the microtiter plates at 25° C., the in vitro antifungal activity (%) of the individual active ingredients was assessed by calculating the reduction in mould growth observed in the presence of the active ingredient in comparison to the mould growth observed in the absence of the active ingredient. The expected antifungal activity (E in %) of the active ingredient combination was calculated according to the Colby equation (Colby, 1967): […]

Penicillium italicum = test: as above; format: cell-based; details: 25° C., day 10, 0.63 ppm natamycin, 25 ppm isopyrazam or both
Description: Subsequently, 100 μl of a Botrytis cinerea suspension prepared in PCB medium was used to inoculated each well with 2.5×10^3 spores/ml.
After incubation of the microtiter plates at 25° C., the in vitro antifungal activity (%) of the individual active ingredients was assessed by calculating the reduction in mould growth observed in the presence of the active ingredient in comparison to the mould growth observed in the absence of the active ingredient. The expected antifungal activity (E in %) of the active ingredient combination was calculated according to the Colby equation (Colby, 1967): E=X+Y−[(X·Y)/100] wherein X and Y are the observed antifungal activities (in %) of the individual active ingredients X and Y, respectively. If the observed antifungal activity (O in %) of the combination exceeds the expected antifungal activity (E in %) of the combination and the resulting synergy factor O/E is thus >1.0, the combined application of the active ingredients leads to a synergistic antifungal effect.
Furthermore, Penicillium italicum was used for inoculation.

CC(C)C1C2CCC1c1c(NC(=O)c3cn(C)nc3C(F)F)cccc12 (centres unmarked) [Isopyrazam, isopyrazam]
Observed antifungal activity O (%) (Botrytis cinerea): 0% | Observed antifungal activity O (%) (Penicillium italicum): 50%
